The values that follow come from article PMC7151626, “Antioxidant and α-amylase Inhibitory Activities and Phytocompounds of Clausena indica Fruits” (Medicines, 2020).

For this experiment, the target named is T1, porcine pancreatic α-amylase (PPA) (Sus scrofa, UniProt P00690).
T1 construct: gene AMY2; native pancreatic enzyme
T1 sequence (P00690 16-511): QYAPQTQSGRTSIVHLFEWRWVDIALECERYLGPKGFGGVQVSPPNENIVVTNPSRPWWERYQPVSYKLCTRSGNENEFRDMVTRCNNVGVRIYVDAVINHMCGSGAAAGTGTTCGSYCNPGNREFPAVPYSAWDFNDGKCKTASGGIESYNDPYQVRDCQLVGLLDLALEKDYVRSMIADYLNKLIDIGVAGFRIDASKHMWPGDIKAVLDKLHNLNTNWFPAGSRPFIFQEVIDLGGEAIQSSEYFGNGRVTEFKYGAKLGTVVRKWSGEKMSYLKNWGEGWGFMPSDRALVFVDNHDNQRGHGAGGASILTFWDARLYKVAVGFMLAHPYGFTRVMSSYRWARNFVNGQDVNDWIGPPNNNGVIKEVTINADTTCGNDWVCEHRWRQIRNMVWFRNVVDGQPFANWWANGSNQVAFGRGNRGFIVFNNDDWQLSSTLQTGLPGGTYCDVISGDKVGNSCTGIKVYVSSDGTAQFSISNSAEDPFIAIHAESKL
As to the kind of experiment: starch-iodine colorimetric assay, […] nm. It counts as biochemical. The conditions noted are these: read-out: α-Amylase IC50 (mg/mL) (converted).

As for `CCCCCCCCCCCCCCCC(=O)O` [palmitic acid], the IC50 is 5.93 mM.
